Test results as given in US20190192524A1, “Modulators of Caspase-6” (The University of British Columbia, priority 2014, published 2019).

Target: T1, human caspase 6 lacking the pro-domain (Homo sapiens, UniProt P55212)
T1 sequence (P55212 with tags, fused parts or gaps): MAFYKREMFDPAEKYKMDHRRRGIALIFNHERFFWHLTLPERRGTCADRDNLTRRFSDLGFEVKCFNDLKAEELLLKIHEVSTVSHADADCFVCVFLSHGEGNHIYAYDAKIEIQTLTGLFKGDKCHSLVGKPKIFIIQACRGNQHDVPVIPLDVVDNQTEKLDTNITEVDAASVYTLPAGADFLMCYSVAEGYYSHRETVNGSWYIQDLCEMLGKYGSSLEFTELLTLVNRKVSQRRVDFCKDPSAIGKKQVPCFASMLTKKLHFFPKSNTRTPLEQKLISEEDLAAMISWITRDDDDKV
Assay: Intracellular Htt cleavage by Western blot in co-transfected COS-7 cells
Assay type: cell-based
Design: DDK-tag (C); expressed in transfected cells; host or cells: COS-7
Experimental: COS-7 cells were co-transfected with the 4c htt fragment and the human caspase-6 lacking the pro-domain which leads to fast autoactivation of the caspase-6 enzyme and the generation of the 586 aa Htt cleavage fragment. The co-transfected cells were exposed to either 10 uM of the PG3d compound, 3 uM of the Q-VD-Oph pan-caspase inhibitor or were left untreated. Non-transfected cells were included as a negative control and the purified 586 aa Htt fragment was included as a positive control. Cell lysates were subjected to Western blotting and the 586AA fragment generated intracellularly was detected with Htt antibody 2166 (Millipore). Caspase-6 expression and activation was assessed by Western blotting using antibody HD91 (Ehrnhoefer et al, HMG, 2014. 23(3):717-29).
COS-7 cells were co-transfected with the 4c htt fragment and the human caspase-6 lacking the pro-domain which leads to fast autoactivation of the caspase-6 enzyme and the generation of the 586 aa Htt cleavage fragment. […] Non-transfected cells were included as a negative control and the purified 586 aa Htt fragment was included as a positive control. […] The cell lysates were also assayed for the levels of active caspase 6 enzyme as shown in the lower panel of FIG. 5B.

SMILES: O=c1oc(C#Cc2ccccc2)nc(O)c1Cc1ccccc1 [PG-3d, 5-Benzyl-4-hydroxy-2-(phenylethynyl)-6H-1,3-oxazin-6-one]
- level of active caspase 6 enzyme (10 uM compound): decreased amount of active enzyme
- generation of the 586 aa Htt cleavage fragment (10 uM compound vs untreated cells): significant reduction
